US20230372498A1, “PLK1 SELECTIVE DEGRADATION INDUCING COMPOUND” (UPPTHERA, priority 2020, published 2023)
Read-outs that look alike come from different tables or passages of the source.

Biological target: T1, PLK1 (Homo sapiens, UniProt P53350)
T1 construct: endogenous in cells; host or cells: HeLa
Experiment: PLK1 protein degradation in HeLa cells, Western blotting (PLK1/GAPDH ratio)
Type: cell-based
Settings: 6 hours compound incubation; for DC50: measured only if the grade of Dmax is A or B; for Dmax: thymidine block and release, 10 points three-fold from 3 μM, PLK1 to GAPDH ratio
Excerpt: The HeLa cell line was purchased from Korea Cell Line Bank (KCLB), Seoul, Korea. The passage in cell culture was maintained at P115 to P125.
For cell culture, DMEM (Gibco, Cat. No. 1195-65; Lot. No. 2085318), FBS (Gibco, Cat. No. 16000-044; Lot. No. 2097593), Penicillin/Streptomycin (PS) (Gibco, Cat. No. 15140-122; Lot. No. 2058855), 100 mm^2 cell culture dish (SPL, Cat. No. 20100), 150 mm^2 cell culture dish (SPL, Cat. No. 20150), 12-well culture plate (SPL, Cat. No. 30012), PBS pH 7.4 (Gibco, Cat. No. 10010-023; Lot. No. 2085080), TrypLE™ Express (Gibco, Cat. No. 12605-010; Lot No. 2070638), Counting Chamber (Hematocytometer) (Hirschmann, Cat. No. 8100204), and 0.4% Trypan Blue Solution (DYNEBIO, Cat. No. CBT3710; Lot. No. 20190723) were used.
2×10^5 cells were seeded for each well of a 12-well plate (SPL), and the cells were cultured in the culture medium in a total volume of 2 ml.
The compounds of Examples were completely dissolved in DMSO and used in the experiment, and thymidine was completely dissolved in DW and used in the experiment. For thymidine block, the products were treated with 2 mM of thymidine (Sigma-Aldrich Cat. No. T9250-5G) and then incubated for 24 hours.
For release and chemical treatment, the medium was suctioned and washed 3 times with 1×PBS. Complete media was added, followed by incubation for 4 hours in a CO2 incubator. Each compound was diluted three folds from the highest concentration of 3 μM to the lowest concentration in 10 points and then incubated for 6 hours again.
For SDS-PAGE and Western blotting, 1×RIPA lysis buffer (Rockland, Cat. No. MB-030-0050; Lot no. 39751), 100× Protease Inhibitor Cocktail (Quartett, Cat. No. PPI1015; Lot no. PCO50038424), Pierce™ BCA protein assay kit (ThermoScientific, Cat. No. 23225; Lot no. UC276876), albumin standard (ThermoScientific, Cat. No. 23209; Lot no. UB269561), 4-15% Mini-PROTEAN TGX stain-free gel (Bio-rad, Cat. No. 4568085; Lot no. L007041B), 10× Tris/Glycine/SDS buffer (Bio-rad, Cat. No. 1610732; Lot no. 10000044375B); 10×TBS (Bio-rad, Cat. No. 1706435; Lot no. 1000045140B), 10% Tween 20 (Cat. No. 1610781; Lot no. L004152B), Color protein standard broad range (NEB, Cat. No. P7719S; Lot no. 10040349), 4× Laemmli sample buffer (Bio-rad, Cat. No. 1610747; Lot no. L004133B), β-mercaptoethanol (Sigma-Aldrich, Cat. No. M3148; Lot no. 60-24-2), SuperBlock™ T20 (TBS) blocking buffer (ThermoScientific, Cat. No. 37536; Lot no. UC282578), 1M sodium azide solution (Sigma-Aldrich, Cat. No. 08591-1 mL-F; Lot no. BCBV4989), α-Rabbit pAb to Ms IgG (abcam, Cat. No. ab97046; Lot no. GR3252115-1), α-Goat pAb to Rb IgG (CST, Cat. No. 7074S; Lot no. 28), α-GAPDH (abcam, Cat. No. ab8245; Lot no. GR3275542-2), α-Plk1 (CST, Cat. No. 208G4), α-BRD4 (CST, Cat. No. 13440S), ECL™ Prime western blotting reagents (GE Healthcare, Cat. No. RPN2232; Lot no. 17001655), Ponceau S solution (Sigma-Aldrich, Cat. No. P7170; Lot no. SLBV4112), Difco™ Skim milk (BD, Cat. No. 232100; Lot no. 8346795), and iBlot® 2 NC Regular stacks (Invitrogen, Cat. No. IB323001; Lot no. 2NR110619-02) were used.
For cell harvesting, the cells were first separated from the plate using trypsin and then washed with the medium and PBS. Specifically, the medium was suctioned off and washed with 1 mL of PBS, and PBS was suctioned off. The cells were treated with 0.5 mL TrypLE™ Express at 37° C. for 7 minutes to separate the cells, and then 0.5 mL of complete medium was added to collect 1 mL of cell culture solution. Then, 1 mL of the cell collection solution was centrifuged at 8,000 rpm for 120 seconds, and the supernatant was removed. After washing with 0.2 mL of PBS, the PBS was removed.
For cell lysis, a lysis buffer was added and cell debris was removed to obtain a cell lysate. Specifically, the cells were treated with 70 μL of 1×RIPA buffer containing a protease inhibitor and incubated for 30 minutes on ice. Then, the cells were centrifuged at 4° C. and 15,000 rpm for 10 minutes to obtain a cell lysate. […]

T1 sequence (P53350 whole entry): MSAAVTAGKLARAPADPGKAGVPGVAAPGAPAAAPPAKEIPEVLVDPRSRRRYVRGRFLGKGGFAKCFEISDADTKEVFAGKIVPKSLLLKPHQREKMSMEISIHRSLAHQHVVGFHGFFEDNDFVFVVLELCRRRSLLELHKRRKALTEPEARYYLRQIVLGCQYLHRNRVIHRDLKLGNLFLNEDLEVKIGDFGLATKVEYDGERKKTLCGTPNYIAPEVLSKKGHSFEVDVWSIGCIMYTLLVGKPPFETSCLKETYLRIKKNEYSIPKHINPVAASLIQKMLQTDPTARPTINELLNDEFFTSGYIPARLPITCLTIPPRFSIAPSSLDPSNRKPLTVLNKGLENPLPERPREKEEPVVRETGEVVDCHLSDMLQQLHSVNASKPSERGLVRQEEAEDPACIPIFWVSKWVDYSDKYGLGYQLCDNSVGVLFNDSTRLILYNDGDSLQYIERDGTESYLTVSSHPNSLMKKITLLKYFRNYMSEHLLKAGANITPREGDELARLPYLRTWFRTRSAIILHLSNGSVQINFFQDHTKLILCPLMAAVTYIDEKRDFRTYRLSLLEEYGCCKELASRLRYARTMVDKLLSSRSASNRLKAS

| Compound | DC50 | Dmax (read-out: Dmax) | Dmax |
| --- | --- | --- | --- |
| COc1cc(C(=O)NC2CCN(CCCCCCCCCCCCCNc3cccc4c3C(=O)N(C3CCC(=O)NC3=O)C4=O)CC2)c(F)cc1Nc1ncc2c(n1)N(C1CCCC1)CC(F)(F)C(=O)N2C (stereo not drawn) [Compound 16, 4-((9-cyclopentyl-7,7-difluoro-5-methyl-6-oxo-6,7,8,9-tetrahydro-5H-pyrimido[4,5-b][1,4]diazepin-2-yl)amino)-N-(1-(13-((2-(2,6-dioxopiperidin-3-yl)-1,3-dioxoisoindolin-4-yl)amino)tridecyl)piperidin-4-yl)-2-fluoro-5-methoxybenzamide] |  | < 60% |  |
| COc1cc(C(=O)NC2CCN(CCCCCCCCCCCCCCNc3cccc4c3C(=O)N(C3CCC(=O)NC3=O)C4=O)CC2)c(F)cc1Nc1ncc2c(n1)N(C1CCCC1)CC(F)(F)C(=O)N2C (stereo not drawn) [Compound 17, 4-((9-cyclopentyl-7,7-difluoro-5-methyl-6-oxo-5H,6H,7H,8H,9H-pyrimido[4,5-b][1,4]diazepin-2-yl)amino)-N-(1-(14-((2-(2,6-dioxopiperidin-3-yl)-1,3-dioxo-2,3-dihydro-1H-isoindol-4-yl)amino)tetradecyl)piperidin-4-yl)-2-fluoro-5-methoxybenzamide] |  | < 60% |  |
| COc1cc(C(=O)NC2CCN(CCCOCCCNc3cccc4c3C(=O)N(C3CCC(=O)NC3=O)C4=O)CC2)c(F)cc1Nc1ncc2c(n1)N(C1CCCC1)CC(F)(F)C(=O)N2C (stereo not drawn) [Compound 18, 4-((9-cyclopentyl-7,7-difluoro-5-methyl-6-oxo-6,7,8,9-tetrahydro-5H-pyrimido[4,5-b][1,4]diazepin-2-yl)amino)-N-(1-(3-(3-((2-(2,6-dioxopiperidin-3-yl)-1,3-dioxoisoindolin-4-yl)amino)propoxy)propyl)piperidin-4-yl)-2-fluoro-5-methoxybenzamide] | ≤ 500 nM | 60 to 80% |  |
| COc1cc(C(=O)NC2CCN(CCCCOCCCNc3cccc4c3C(=O)N(C3CCC(=O)NC3=O)C4=O)CC2)c(F)cc1Nc1ncc2c(n1)N(C1CCCC1)CC(F)(F)C(=O)N2C (stereo not drawn) [Compound 19, 4-((9-cyclopentyl-7,7-difluoro-5-methyl-6-oxo-6,7,8,9-tetrahydro-5H-pyrimido[4,5-b][1,4]diazepin-2-yl)amino)-N-(1-(4-(3-((2-(2,6-dioxopiperidin-3-yl)-1,3-dioxoisoindolin-4-yl)amino)propoxy)butyl)piperidin-4-yl)-2-fluoro-5-methoxybenzamide] | ≤ 500 nM | 60 to 80% |  |
| COc1cc(C(=O)NC2CCN(CCCOCCCCNc3cccc4c3C(=O)N(C3CCC(=O)NC3=O)C4=O)CC2)c(F)cc1Nc1ncc2c(n1)N(C1CCCC1)CC(F)(F)C(=O)N2C (stereo not drawn) [Compound 20, 4-((9-cyclopentyl-7,7-difluoro-5-methyl-6-oxo-6,7,8,9-tetrahydro-5H-pyrimido[4,5-b][1,4]diazepin-2-yl)amino)-N-(1-(3-(4-((2-(2,6-dioxopiperidin-3-yl)-1,3-dioxoisoindolin-4-yl)amino)butoxy)propyl)piperidin-4-yl)-2-fluoro-5-methoxybenzamide] |  | < 60% |  |
| COc1cc(C(=O)NC2CCN(CCOCCCOCCNc3cccc4c3C(=O)N(C3CCC(=O)NC3=O)C4=O)CC2)c(F)cc1Nc1ncc2c(n1)N(C1CCCC1)CC(F)(F)C(=O)N2C (stereo not drawn) [Compound 21, 4-((9-cyclopentyl-7,7-difluoro-5-methyl-6-oxo-6,7,8,9-tetrahydro-5H-pyrimido[4,5-b][1,4]diazepin-2-yl)amino)-N-(1-(2-(3-(2-((2-(2,6-dioxopiperidin-3-yl)-1,3-dioxoisoindolin-4-yl)amino)ethoxy)propoxy)ethyl)piperidin-4-yl)-2-fluoro-5-methoxybenzamide] | ≤ 50 nM | ≥ 80% |  |

Second part, led by results:

| DC50 | Dmax (read-out: Dmax) | Compound | Dmax |
| --- | --- | --- | --- |
| ≤ 500 nM | 60 to 80% | COc1cc(C(=O)NC2CCN(CCCCCCCNc3cccc4c3C(=O)N(C3CCC(=O)NC3=O)C4=O)CC2)c(F)cc1Nc1ncc2c(n1)N(C1CCCC1)CC(F)(F)C(=O)N2C (stereo not drawn) [Compound 11, 4-((9-cyclopentyl-7,7-difluoro-5-methyl-6-oxo-6,7,8,9-tetrahydro-5H-pyrimido[4,5-b][1,4]diazepin-2-yl)amino)-N-(1-(7-((2-(2,6-dioxopiperidin-3-yl)-1,3-dioxoisoindolin-4-yl)amino)heptyl)piperidin-4-yl)-2-fluoro-5-methoxybenzamide] |  |
| > 500 nM | 60 to 80% | COc1cc(C(=O)NC2CCN(CCCCCCCCNc3cccc4c3C(=O)N(C3CCC(=O)NC3=O)C4=O)CC2)c(F)cc1Nc1ncc2c(n1)N(C1CCCC1)CC(F)(F)C(=O)N2C (stereo not drawn) [Compound 12, 4-((9-cyclopentyl-7,7-difluoro-5-methyl-6-oxo-6,7,8,9-tetrahydro-5H-pyrimido[4,5-b][1,4]diazepin-2-yl)amino)-N-(1-(8-((2-(2,6-dioxopiperidin-3-yl)-1,3-dioxoisoindolin-4-yl)amino)octyl)piperidin-4-yl)-2-fluoro-5-methoxybenzamide] |  |
| ≤ 500 nM |  | COc1cc(C(=O)NC2CCN(CCCCCCCCCNc3cccc4c3C(=O)N(C3CCC(=O)NC3=O)C4=O)CC2)c(F)cc1Nc1ncc2c(n1)N(C1CCCC1)CC(F)(F)C(=O)N2C (stereo not drawn) [Compound 13] | B (B: Dmax is 80% or less and 60% or more) |
|  | < 60% | COc1cc(C(=O)NC2CCN(CCCCCCCCCCNc3cccc4c3C(=O)N(C3CCC(=O)NC3=O)C4=O)CC2)c(F)cc1Nc1ncc2c(n1)N(C1CCCC1)CC(F)(F)C(=O)N2C (stereo not drawn) [Compound 14, 4-((9-cyclopentyl-7,7-difluoro-5-methyl-6-oxo-6,7,8,9-tetrahydro-5H-pyrimido[4,5-b][1,4]diazepin-2-yl)amino)-N-(1-(10-((2-(2,6-dioxopiperidin-3-yl)-1,3-dioxoisoindolin-4-yl)amino)decyl)piperidin-4-yl)-2-fluoro-5-methoxybenzamide] |  |
| > 500 nM | 60 to 80% | COc1cc(C(=O)NC2CCN(CCCCCCCCCCCNc3cccc4c3C(=O)N(C3CCC(=O)NC3=O)C4=O)CC2)c(F)cc1Nc1ncc2c(n1)N(C1CCCC1)CC(F)(F)C(=O)N2C (stereo not drawn) [Compound 15, 4-((9-cyclopentyl-7,7-difluoro-5-methyl-6-oxo-5H,6H,7H,8H,9H-pyrimido[4,5-b][1,4]diazepin-2-yl)amino)-N-(1-(11-((2-(2,6-dioxopiperidin-3-yl)-1,3-dioxo-2,3-dihydro-1H-isoindol-4-yl)amino)undecyl)piperidin-4-yl)-2-fluoro-5-methoxybenzamide] |  |
